# Test results from US20020026945A1, “Enhancement of photodynamic therapy by anti-angiogenic treatment” (priority 2000, published 2002).
# Residues, ends and D or L forms follow the SMILES beside them.
# Key:
# BA mammary carcinomas = assay: In-vivo PDT tumor treatment, tumor cures; parameters: species or system C3H/HeJ mice; details: for tumor cures or tumor regression / tumor growth parameters: anti-angiogenic treatment alone, daily IP for 10 days, no PDT; for tumor cures: single PDT (PH 5 mg/kg, 200 J/cm^2) plus daily IP injections for 10 days (EMAP-II 50 μg/kg, IM862 25 mg/kg), disease free at least 40 days
# Procedure: BA mouse mammary carcinoma cells (originally obtained from the NIH tumor bank) were used in all in-vitro and in-vivo experiments (17). Cells were grown as a monolayer in RPMI 1640 media supplemented with 10% fetal calf serum (FCS) and antibiotics. The plating efficiency for the BA cells ranged from 40-60%. Subcutaneous BA mammary carcinomas were generated by trocar injection of 1-mm^3 pieces of tumor to the hind right flank of 8-12 week old female C3H/HeJ mice (17).
# In-vivo photodynamic therapy tumor treatments were performed as previously reported on tumors measuring 6-7 mm in diameter (17). Briefly, photodynamic therapy procedures included an i.v. injection of PH (5 mg/kg) followed 24 h later with non-thermal laser tumor irradiation using an argon pumped dye laser emitting red light at 630 nm. A light dose rate of 75 mW/cm^2 and a total light dose of 200 J/cm^2 were used for all in-vivo PDT treatments. Following treatment, tumors were measured 3 times per week. Cures were defined as being disease free for at least 40 days following photodynamic therapy (17). Anti-angiogenic treatment was performed using either EMAP-II or IM862. Each compound was administered as daily IP injections for 10 consecutive days starting 1 h prior to photodynamic therapy light treatment. Individual IM862 doses were 25 mg/kg and individual EMAP-II doses were 50 μg/kg. Tumor tissue hypoxia was induced in selected experiments by clamping lesions for 45 minutes. Statistical analysis was performed using the X^2 test for evaluation of tumor cure rates.
# A photodynamic therapy procedure, which produced a moderate cure rate alone, was used to measure positive or negative changes in tumor response when a single photodynamic therapy treatment was combined with daily injections of EMAP-II or IM862 for 10 days (17).
# VEGF [1] = assay: VEGF ELISA of tumor extracts after PDT; assay type: in vivo, mouse; details: PDT plus 2 doses of agent versus PDT alone; tumors collected 24 hr after PDT
# Procedure: Tumor bearing mice received either no treatment (Control), photodynamic therapy alone, or photodynamic therapy plus 2 injections of either EMAP-II or IM862 (1 hr prior to photodynamic therapy and 23 hr after photodynamic therapy). Tumor samples were collected 24 hr after PDT and assayed for VEGF expression using a commercial ELISA assay kit. Each group represents the mean ± SE of 6 individual tumor samples.
# (§1) In-vivo photodynamic therapy tumor treatments were performed as previously reported on tumors measuring 6-7 mm in diameter (17). Briefly, photodynamic therapy procedures included an i.v. injection of PH (5 mg/kg) followed 24 h later with non-thermal laser tumor irradiation using an argon pumped dye laser emitting red light at 630 nm. A light dose rate of 75 mW/cm^2 and a total light dose of 200 J/cm^2 were used for all in-vivo PDT treatments. Following treatment, tumors were measured 3 times per week. Cures were defined as being disease free for at least 40 days following photodynamic therapy (17). Anti-angiogenic treatment was performed using either EMAP-II or IM862. […]
# A Quantikine M mouse VEGF ELISA kit (R&D Systems, Minneapolis, Minn.) was used to quantify VEGF levels in cell culture media as well as in tumor extracts from control and treated mice. […]
# The effects of the anti-angiogenic derivatives on photodynamic therapy induced VEGF levels were analyzed in the treated tumors. […]
# angiogenesis = details: preclinical studies; cited from earlier work
# VEGF [2] = details: preclinical studies; cited from earlier work
# xenograft models = details: in vivo; cited from earlier work
# [3] = test system: AIDS associated Kaposi's sarcoma; details: intranasal administration; reference 16; cited from earlier work
# tumor cells = details: cited from earlier work
# [4] = in vivo; cited from earlier work
# HIF-1α = assay: Western immunoblot of HIF-1α in treated tumors; assay type: in vivo, C3H mice
# Procedure: (§2) In FIG. 1A, tumors were collected immediately following treatment and evaluated for HIF-1α expression by Western immunoblot analysis. HIF-1α was not detectable in control tumors measuring 6-7 mm in diameter. […] In FIG. 1B, separate tumors were collected 24 hr after photodynamic therapy or clamping (45 min) and assayed for VEGF expression by Western immunoblot analysis. Expression of actin was used to monitor protein loading.
# as §1
# (§3) Tumors were collected at various times after treatment, homogenized with a polytron in 1X reporter lysis buffer (Promega, Wis.) and evaluated for protein expression as described previously (18). […]
# VEGF [5] = assay: Western immunoblot of VEGF in treated tumors; parameters: species or system C3H mice; details: tumor lysates collected 24 hours after in-vivo PDT
# Procedure: as §2, §1, §3
# VEGF [6] = assay: VEGF ELISA of culture media of BA mammary carcinoma cells; assay type: cell-based, mouse; details: in-vitro PDT, PH 25 μg/ml, 210 J/m^2, measured 24 hr after treatment
# tumor growth = details: reference 15; cited from earlier work
# [7] = test system: growing capillary endothelial cells; details: time and dose dependent; reference 15; cited from earlier work
# vessel ingrowth = details: experimental angiogenesis models and primary tumors; cited from earlier work
# [8] = in vivo; cited from earlier work; remark: listed apart in the source
Molecule,tumor cures or tumor regression (BA mammary carcinomas),tumor growth parameters (BA mammary carcinomas),tumor cures (BA mammary carcinomas),VEGF levels in PDT treated tumors (ELISA) (VEGF [1]),angiogenesis in chorioallantoic membrane assays (angiogenesis),VEGF production in monocytic lineage cells (VEGF [2]),tumor growth in xenograft models (xenograft models),antitumor activity in patients [3],direct cytotoxic effect on tumor cells (tumor cells),safety and tolerability [4],"cure rate (BA mammary carcinomas; photodynamic therapy alone (PH 5 mg/kg i.v., 630 nm, 200 J/cm^2), cure = disease free for at least 40 days)","HIF-1α expression (Western) (HIF-1α; PDT (PH 5 mg/kg; 200 J/cm^2), tumors collected immediately following treatment)",time after photodynamic therapy at which HIF-1α expression is observed (HIF-1α; PDT of BA tumors in C3H mice),VEGF expression within treated lesions (Western) (VEGF [5]),VEGF levels in culture media (VEGF [6]),tumor growth (tumor growth),apoptosis in growing capillary endothelial cells [7],vessel ingrowth (vessel ingrowth),toxicity in normal organs [8]
"N[C@@H](CCC(=O)O)C(=O)N[C@@H](Cc1c[nH]c2ccccc12)C(=O)O [IM862, L-glutamyl-L-tryptophan] (H-Glu-Trp-OH)",did not produce any tumor cures or tumor regression,only slightly modified tumor growth parameters,78%,decrease in VEGF levels,inhibits angiogenesis,inhibits VEGF production,inhibits tumor growth,exhibits antitumor activity,no direct cytotoxic effect,safe and well tolerated,,,,,,,,,
Photofrin porfimer sodium,,,,,,,,,,,39%,induced HIF-1α expression,≤ 5 min,induced significant increases in VEGF expression,modestly increase in VEGF levels,,,,
"EMAP-II: recombinant single chain polypeptide which inhibits tumor growth and has anti-angiogenic activity (protein, UniProt Q12904 147-312, looked up, Endothelial monocyte-activating polypeptide 2) Endothelial …: SKPIDVSRLDLRIGCIITARKHPDADSLYVEEVDVGEIAPRTVVSGLVNHVPLEQMQNRMVILLCNLKPAKMRGVLSQAMVMCASSPEKIEILAPPNGSVPGDRITFDAFPGEPDKELNPKKKIWEQIQPDLHTNDECVATYKGVPFEVKGKGVCRAQTMSNSGIK",did not produce any tumor cures or tumor regression,only slightly modified tumor growth parameters,89%,statistically significant decrease,,,,,,,,,,,,inhibits tumor growth,induces apoptosis,prevents vessel ingrowth,does not induce toxicity
